Values of other authors as cited in patent US20060009360A1, “New adjuvant composition” (priority 2004, published 2006).

Settings: glyphosate in acid form

In the case of `O=C(O)CNCP(=O)(O)O` [glyphosate, N-(phosphonomethyl)glycine], the water solubility is given as “about 1.2%”.
